Experimental data reported in US20230340011A1 (Asteroid Therapeutics, priority 2022, published 2023).
pEC50, pIC50: −log10 of the molar value.

Tests used:
[1] = molecular target: SREBP-2 (Homo sapiens (Human), UniProt Q12772); assay: In vitro assay SREBP-2: PathHunter U2OS SREBP-2 Nuclear Translocation Cell Line, U18666A-stimulated; format: cell-based; settings: PathHunter U2OS SREBP-2 nuclear translocation cells, U18666A 10 μM, overnight (16 hours)
[2] = molecular target: LXRβ (Homo sapiens (Human), UniProt P55055); assay: In vitro assay LXRβ: PathHunter NHR CHO cells, LXRβ / Steroid Receptor Co-activator Peptide enzyme fragment complementation; format: cell-based; settings: PathHunter NHR CHO cells, full-length human LXRβ and SRCP, chemiluminescent signal; read-out: LXRβ PPI
Sequence of LXRβ (P55055 whole entry, the tested form may be a part): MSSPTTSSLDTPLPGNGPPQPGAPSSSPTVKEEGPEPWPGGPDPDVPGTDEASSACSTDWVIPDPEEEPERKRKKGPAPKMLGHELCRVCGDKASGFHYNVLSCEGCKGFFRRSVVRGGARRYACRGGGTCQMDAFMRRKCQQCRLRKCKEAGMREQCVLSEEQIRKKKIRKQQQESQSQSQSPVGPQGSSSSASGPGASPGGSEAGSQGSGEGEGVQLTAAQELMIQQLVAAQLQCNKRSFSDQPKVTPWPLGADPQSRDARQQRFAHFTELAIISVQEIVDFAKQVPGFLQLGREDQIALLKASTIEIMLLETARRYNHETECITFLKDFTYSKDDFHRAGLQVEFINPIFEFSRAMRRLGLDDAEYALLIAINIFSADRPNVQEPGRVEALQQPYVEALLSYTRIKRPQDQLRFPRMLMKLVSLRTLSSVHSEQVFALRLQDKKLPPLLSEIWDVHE
How it was run: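 Enzyme fragment complementation read-out: CHO cells stably expressing ProLink-tagged full-length human LXRβ plus nuclear enzyme acceptor–SRCP fusion, seeded and held overnight at 37° C. Medium with charcoal-dextran filtered serum; final vehicle 1%. Chemiluminescence measured after signal generation.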

SMILES: Cc1nccc(N2CCN(C(=O)CC[C@@H](C)[C@H]3CC[C@H]4[C@@H]5CC=C6C[C@@H](O)CC[C@]6(C)[C@H]5CC[C@]34C)[C@@H](C)C2)n1 [Example 649, (R)-4-((3S,8S,9S,10R,13R,14S,17R)-3-hydroxy-10,13-dimethyl-2,3,4,7,8,9,10,11,12,13,14,15,16,17-tetradecahydro-1H-cyclopenta[a]phenanthren-17-yl)-1-((S)-2-methyl-4-(2-methylpyrimidin-4-yl)piperazin-1-yl)pentan-1-one]
- pIC50 [1]: > 6.60
- pEC50 [2]: < 5.00

SMILES: C[C@H](CCC(=O)N1CCN(c2ccnn2C)C[C@@H]1C)[C@H]1CC[C@H]2[C@@H]3CC=C4C[C@@H](O)CC[C@]4(C)[C@H]3CC[C@]12C [Example 609, (R)-4-((3S,8S,9S,10R,13R,14S,17R)-3-hydroxy-10,13-dimethyl-2,3,4,7,8,9,10,11,12,13,14,15,16,17-tetradecahydro-1H-cyclopenta[a]phenanthren-17-yl)-1-((S)-2-methyl-4-(1-methyl-1H-pyrazol-5-yl)piperazin-1-yl)pentan-1-one]
- pIC50 [1]: > 6.60
- pEC50 [2]: < 5.00

SMILES: C[C@H](CCC(=O)N1CCC(O)(c2ccccc2)CC1)[C@H]1CC[C@H]2[C@@H]3CC=C4C[C@@H](O)CC[C@]4(C)[C@H]3CC[C@]12C [Example 91, (R)-4-((3S,8S,9S,10R,13R,14S,17R)-3-hydroxy-10,13-dimethyl-2,3,4,7,8,9,10,11,12,13,14,15,16,17-tetradecahydro-1H-cyclopenta[a]phenanthren-17-yl)-1-(4-hydroxy-4-phenylpiperidin-1-yl) pentan-1-one]
- pIC50 [1]: > 6.60
- pEC50 [2]: < 5.00

SMILES: COC1CCN(C(=O)CC[C@@H](C)[C@H]2CC[C@H]3[C@@H]4CC=C5C[C@@H](O)CC[C@]5(C)[C@H]4CC[C@]23C)CC1 [Example 94, (R)-4-((3S,8S,9S,10R,13R,14S,17R)-3-hydroxy-10,13-dimethyl-2,3,4,7,8,9,10,11,12,13,14,15,16,17-tetradecahydro-1H-cyclopenta[a]phenanthren-17-yl)-1-(4-methoxypiperidin-1-yl)pentan-1-one]
- pIC50 [1]: > 6.60
- pEC50 [2]: 6.00 to 6.60

SMILES: CCCN(CCC)C(=O)C(=O)O[C@@H](C)[C@H]1CC[C@H]2[C@@H]3CC=C4C[C@@H](O)CC[C@]4(C)[C@H]3CC[C@]12C [Example 196, (S)-1-((3S,8S,9S,10R,13S,14S,17S)-3-hydroxy-10,13-dimethyl-2,3,4,7,8,9,10,11,12,13,14,15,16,17-tetradecahydro-1H-cyclopenta[a]phenanthren-17-yl)ethyl 2-(dipropylamino)-2-oxoacetate]
- pIC50 [1]: > 6.60
- pEC50 [2]: 5.00 to 6.00

SMILES: C[C@H](CCC(=O)N1CCN(C(=O)c2cnccn2)C[C@@H]1C)[C@H]1CC[C@H]2[C@@H]3CC=C4C[C@@H](O)CC[C@]4(C)[C@H]3CC[C@]12C [Example 581, (R)-4-((3S,8S,9S,10R,13R,14S,17R)-3-hydroxy-10,13-dimethyl-2,3,4,7,8,9,10,11,12,13,14,15,16,17-tetradecahydro-1H-cyclopenta[a]phenanthren-17-yl)-1-((S)-2-methyl-4-(pyrazine-2-carbonyl)piperazin-1-yl)pentan-1-one]
- pIC50 [1]: > 6.60
- pEC50 [2]: < 5.00

SMILES: C[C@H](CCc1ncccc1F)[C@H]1CC[C@H]2[C@@H]3CC=C4C[C@@H](O)CC[C@]4(C)[C@H]3CC[C@]12C [Example 164, (3S,8S,9S,10R,13R,14S,17R)-17-((R)-4-(3-fluoropyridin-2-yl)butan-2-yl)-10,13-dimethyl-2,3,4,7,8,9,10,11,12,13,14,15,16,17-tetradecahydro-1H-cyclopenta[a]phenanthren-3-ol]
- pIC50 [1]: 6.00 to 6.60
- pEC50 [2]: 6.00 to 6.60

SMILES: C[C@H](CCC(=O)N1CCC(F)(F)CC1)[C@H]1CC[C@H]2[C@@H]3CC=C4C[C@@H](O)CC[C@]4(C)[C@H]3CC[C@]12C [Example 79, (R)-1-(4,4-difluoropiperidin-1-yl)-4-((3S,8S,9S,10R,13R,14S,17R)-3-hydroxy-10,13-dimethyl-2,3,4,7,8,9,10,11,12,13,14,15,16,17-tetradecahydro-1H-cyclopenta[a]phenanthren-17-yl) pentan-1-one]
- pIC50 [1]: > 6.60
- pEC50 [2]: 5.00 to 6.00

SMILES: CC(C)ON(C)C(=O)CC[C@@H](C)[C@H]1CC[C@H]2[C@@H]3CC=C4C[C@@H](O)CC[C@]4(C)[C@H]3CC[C@]12C [Example 14, (R)-4-((3S,8S,9S,10R,13R,14S,17R)-3-hydroxy-10,13-dimethyl-2,3,4,7,8,9,10,11,12,13,14,15,16,17-tetradecahydro-1H-cyclopenta[a]phenanthren-17-yl)-N-isopropoxy-N-methylpentanamide]
- pIC50 [1]: 6.00 to 6.60
- pEC50 [2]: 6.00 to 6.60

SMILES: C[C@H](CCC(=O)N1CCN(C(=O)N2CCCC2)CC1)[C@H]1CC[C@H]2[C@@H]3CC=C4C[C@@H](O)CC[C@]4(C)[C@H]3CC[C@]12C [Example 207, (R)-4-((3S,8S,9S,10R,13R,14S,17R)-3-hydroxy-10,13-dimethyl-2,3,4,7,8,9,10,11,12,13,14,15,16,17-tetradecahydro-1H-cyclopenta[a]phenanthren-17-yl)-1-(4-(pyrrolidine-1-carbonyl)piperazin-1-yl) pentan-1-one]
- pIC50 [1]: > 6.60
- pEC50 [2]: < 5.00

SMILES: C[C@H](CCC(=O)N1CCN(C(=O)c2cn(C)nn2)C[C@@H]1C)[C@H]1CC[C@H]2[C@@H]3CC=C4C[C@@H](O)CC[C@]4(C)[C@H]3CC[C@]12C [Example 587, (R)-4-((3S,8S,9S,10R,13R,14S,17R)-3-hydroxy-10,13-dimethyl-2,3,4,7,8,9,10,11,12,13,14,15,16,17-tetradecahydro-1H-cyclopenta[a]phenanthren-17-yl)-1-((S)-2-methyl-4-(1-methyl-1H-1,2,3-triazole-4-carbonyl)piperazin-1-yl)pentan-1-one]
- pIC50 [1]: > 6.60
- pEC50 [2]: < 5.00

SMILES: C[C@H](CCC(=O)N1CCN(C(=O)N(C)C)CC1)[C@H]1CC[C@H]2[C@@H]3CC=C4C[C@@H](O)CC[C@]4(C)[C@H]3CC[C@]12C [Example 339, 4-[(4R)-4-[(1R,3aS,3bS,7S,9aR,9bS,11aR)-7-hydroxy-9a,11a-dimethyl-1H,2H,3H,3aH,3bH,4H,6H,7H,8H,9H,9aH,9bH,10H,11H,11aH-cyclopenta[a]phenanthren-1-yl]pentanoyl]-N,N-dimethylpiperazine-1-carboxamide]
- pIC50 [1]: > 6.60
- pEC50 [2]: < 5.00

SMILES: C[C@H](CCc1ncccc1CO)[C@H]1CC[C@H]2[C@@H]3CC=C4C[C@@H](O)CC[C@]4(C)[C@H]3CC[C@]12C [Example 250, (3S,8S,9S,10R,13R,14S,17R)-17-((R)-4-(3-(hydroxymethyl)pyridin-2-yl)butan-2-yl)-10,13-dimethyl-2,3,4,7,8,9,10,11,12,13,14,15,16,17-tetradecahydro-1H-cyclopenta[a]phenanthren-3-ol]
- pIC50 [1]: > 6.60
- pEC50 [2]: > 6.60

SMILES: CCN(C)C(=O)N1CCN(C(=O)CC[C@@H](C)[C@H]2CC[C@H]3[C@@H]4CC=C5C[C@@H](O)CC[C@]5(C)[C@H]4CC[C@]23C)CC1 [Example 213, N-ethyl-4-((R)-4-((3S,8S,9S,10R,13R,14S,17R)-3-hydroxy-10,13-dimethyl-2,3,4,7,8,9,10,11,12,13,14,15,16,17-tetradecahydro-1H-cyclopenta[a]phenanthren-17-yl)pentanoyl)-N-methylpiperazine-1-carboxamide]
- pIC50 [1]: > 6.60
- pEC50 [2]: < 5.00
